Test results as given in patent publication US20230146455A1, “TREATMENT OF INFLAMMATORY DISEASES WITH PEPTIDES AND PHARMACEUTICAL COMPOSITIONS” (Yuyu Pharma, Inc., priority 2020, published 2023).
“And” between values parts separate entries of the source, which are not always exact repeats. Identical values can stand only once. Where a SMILES comes first, the peptide text is derived from it. [ ]: non-standard residue; d: D form. Hyp = O=C(O)[C@@H]1C[C@@H](O)CN1

System: CCL5/RANTES
Experiment: Example 9 Luminex, LPS hPBMCs: CCL5/RANTES
Format: cell-based, human
Conditions: PBMC + LPS(5 ug/ml)
Procedure: Treatment Human PBMCs were pretreated with YY-101, YDE-011 and YDE-043 or reference compound; Xiidra® at various concentration (ranging from 1 nM to 100 uM) for 2 h before stimulation. An equal volume of 0.5% DMSO was used as a vehicle control. Then, the cells were treated with LPS at 5 ug/ml. The supernatants from treated cells were harvested at 24 h and placed in a 96 well for Luminex cytokine & chemokine profiling using a Luminex 200 multiplex assay (Luminex; R&D system, USA).
The main study arm with triplicate wells per group in a 24-well plate: • 1. Blank • 2. PBMC: 0.5% DMSO • 3. PBMC+LPS (5 ug/ml) • 4. PBMC+YY-101 100 uM • 5. PBMC+YY-101 10 uM • 6. PBMC+YY-101 1 uM • 7. PBMC+YY-101 0.1 uM • 8. PBMC+YY-101 0.01 uM • 9. PBMC+LPS (5 ug/ml)+Xiidra®100 uM • 10. PBMC+LPS (5 ug/ml)+Xiidra® 10 uM • 11. PBMC+LPS (5 ug/ml)+Xiidra® 1 uM • 12. PBMC+LPS (5 ug/ml)+Xiidra®0.1 uM • 13. PBMC+LPS (5 ug/ml)+Xiidra®0.01 uM • 14. PBMC+LPS (5 ug/ml)+Xiidra®0.001 uM • 15. PBMC+LPS (5 ug/ml)+YY-101 100 uM • 16. PBMC+LPS (5 ug/ml)+YY-101 10 uM • 17. PBMC+LPS (5 ug/ml)+YY-101 1 uM • 18. PBMC+LPS (5 ug/ml)+YY-101 0.1 uM • 19. PBMC+LPS (5 ug/ml)+YY-101 0.01 uM • 20. PBMC+LPS (5 ug/ml)+YY-101 0.001 uM • 21. PBMC+LPS (5 ug/ml)+YDE-011 100 uM • 22. PBMC+LPS (5 ug/ml)+YDE-011 10 uM • 23. PBMC+LPS (5 ug/ml)+YDE-011 1 uM • 24. PBMC+LPS (5 ug/ml)+YDE-011 0.1 uM • 25. PBMC+LPS (5 ug/ml)+YDE-011 0.01 uM • 26. PBMC+LPS (5 ug/ml)+YDE-011 0.001 uM • 27. PBMC+LPS (5 ug/ml)+YDE-043 100 uM • 28. PBMC+LPS (5 ug/ml)+YDE-043 10 uM • 29. PBMC+LPS (5 ug/ml)+YDE-043 1 uM • 30. PBMC+LPS (5 ug/ml)+YDE-043 0.1 uM • 31. PBMC+LPS (5 ug/ml)+YDE-043 0.01 uM • 32. PBMC+LPS (5 ug/ml)+YDE-043 0.001 uM
Multiplex assay was used to measure 30 cytokines and chemokines. The 1:2, 1:10 and 1:200 diluted cell supernatant and serial dilution of the standard were dispensed into a 96 well plate at 50 ul/well. Then, the pre-mixed cocktail of antibody-coated magnetic beads was dispensed at 50 ul/well and incubated at room temperature for 2 h in a horizontal orbital microplate shaker at 800±500 rpm. The beads were washed using a magnetic device to prevent loss. The biotin-antibody was dispensed in 50 ul of each well and incubated at room temperature for 1 h in a shaker at 800±500 rpm. After washing, streptavidin-PE was added at 50 ul/well and incubated at room temperature for 30 min in a shaker under the same conditions. Finally, after washing, wash buffer (100 ul/well) was added to the plate and incubated in a shaker for 2 min. The Luminex™ 200 setting were set according to the manufacturer's protocol. The data was calculated with a standard five-parameter logistic nonlinear regression analysis of the data (xPonent software 4.2, USA). The levels of cytokine/chemokine are normalized to the live cell counts (1×10^5 cells/mL) and presented as concentrations per mL (pg/mL or ng/mL).

[1] = test article 0.001 uM, single replicates (1st, 2nd, 3rd)
[2] = test article 0.01 uM, single replicates (1st, 2nd, 3rd)
[3] = test article 0.1 uM, single replicates (1st, 2nd, 3rd)
[4] = test article 1 uM, single replicates (1st, 2nd, 3rd)
[5] = test article 10 uM, single replicates (1st, 2nd, 3rd)
[6] = test article 100 uM, single replicates (1st, 2nd, 3rd)

CC(C)C[C@H](NC(=O)CNC(=O)[C@H](CC(C)C)NC(=O)[C@H](CCC(N)=O)NC(=O)CNC(=O)[C@@H]1C[C@@H](O)CN1)C(=O)N[C@@H](C)C(=O)NCC(=O)N1CCC[C@H]1C(=O)N[C@@H](CCCCN)C(=O)O [YDE-011] (H-[Hyp]GQLGLAGPK-OH)
Concentration (CCL5/RANTES) (test article 0.001 uM, Mean): 209.7 pg/mL | MFI (Bead name: CCL5/RANTES) (test article 0.001 uM, Mean): 477.2 | conc/live cell (CCL5/RANTES) (test article 0.001 uM, Mean): 39.5 pg/10^5 | Concentration (CCL5/RANTES) [1]: 202.5 pg/ml (2×) and 224.1 pg/ml | MFI (Bead name: CCL5/RANTES) [1]: 455.5 (2×) and 520.5 | conc/live cell (CCL5/RANTES) [1]: 45.0 pg/10^5 and 34.9 pg/10^5 and 38.6 pg/10^5 | Concentration (CCL5/RANTES) (test article 0.01 uM, Mean): 215.3 pg/mL | MFI (Bead name: CCL5/RANTES) (test article 0.01 uM, Mean): 494.0 | conc/live cell (CCL5/RANTES) (test article 0.01 uM, Mean): 37.1 pg/10^5 | Concentration (CCL5/RANTES) [2]: 216.5 pg/mL and 220.2 pg/mL and 209.4 pg/mL | MFI (Bead name: CCL5/RANTES) [2]: 497.5 and 508.5 and 476.0 | conc/live cell (CCL5/RANTES) [2]: 34.9 pg/10^5 and 43.2 pg/10^5 and 33.2 pg/10^5 | Concentration (CCL5/RANTES) (test article 0.1 uM, Mean): 207.0 pg/mL | MFI (Bead name: CCL5/RANTES) (test article 0.1 uM, Mean): 468.8 | conc/live cell (CCL5/RANTES) (test article 0.1 uM, Mean): 36.3 pg/10^5 | Concentration (CCL5/RANTES) [3]: 206.7 pg/mL and 205.2 pg/mL and 209.0 pg/mL | MFI (Bead name: CCL5/RANTES) [3]: 468.0 and 463.5 and 475.0 | conc/live cell (CCL5/RANTES) [3]: 31.3 pg/10^5 and 41.0 pg/10^5 and 36.7 pg/10^5 | Concentration (CCL5/RANTES) (test article 1 uM, Mean): 199.8 pg/mL | MFI (Bead name: CCL5/RANTES) (test article 1 uM, Mean): 447.5 | conc/live cell (CCL5/RANTES) (test article 1 uM, Mean): 39.8 pg/10^5 | Concentration (CCL5/RANTES) [4]: 205.5 pg/mL and 199.5 pg/mL and 194.4 pg/mL | MFI (Bead name: CCL5/RANTES) [4]: 464.5 and 446.5 and 431.5 | conc/live cell (CCL5/RANTES) [4]: 37.4 pg/10^5 and 41.6 pg/10^5 and 40.5 pg/10^5 | Concentration (CCL5/RANTES) (test article 10 uM, Mean): 204.9 pg/mL | MFI (Bead name: CCL5/RANTES) (test article 10 uM, Mean): 462.7 | conc/live cell (CCL5/RANTES) (test article 10 uM, Mean): 38.9 pg/10^5 | Concentration (CCL5/RANTES) [5]: 214.7 pg/mL and 201.8 pg/mL and 198.1 pg/mL | MFI (Bead name: CCL5/RANTES) [5]: 492.0 and 453.5 and 442.5 | conc/live cell (CCL5/RANTES) [5]: 39.8 pg/10^5 and 34.8 pg/10^5 and 42.1 pg/10^5 | Concentration (CCL5/RANTES) (test article 100 uM, Mean): 161.8 pg/mL | MFI (Bead name: CCL5/RANTES) (test article 100 uM, Mean): 338.5 | conc/live cell (CCL5/RANTES) (test article 100 uM, Mean): 26.7 pg/10^5 | Concentration (CCL5/RANTES) [6]: 170.4 pg/mL and 153.5 pg/mL and 161.5 pg/mL | MFI (Bead name: CCL5/RANTES) [6]: 362.5 and 315.5 and 337.5 | conc/live cell (CCL5/RANTES) [6]: 27.9 pg/10^5 and 25.2 pg/10^5 and 26.9 pg/10^5
